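Tested at 5 concentrations; 48 h exposure; 96-well plates; endpoints linearly interpolated, else capped at highest concentration. GI50 = concentration required for 50% inhibition of growth.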 Activity calls are given as the source filed them. Cut-off read from the data, not from the text of the source: active = GI50 up to about 1.1 µM and inactive = higher.
Key:
Experiment in all cases: NCI tumour cell line growth inhibition, 48 h
SK-OV-3 = system: SK-OV-3
IGROV-1 = system: IGROV-1
Malme-3M = system: Malme-3M
HOP-92 = system: HOP-92
NCI-H226 = system: NCI-H226
A498 = system: A498
SR = system: SR
RXF 393 = system: RXF 393
K562 = system: K562
NCI-H23 = system: NCI-H23
HOP-62 = system: HOP-62
NCI/ADR-RES = system: NCI/ADR-RES
MCF7 = system: MCF7
COLO 205 = system: COLO 205
MDA-MB-231 = system: MDA-MB-231
NCI-H460 = system: NCI-H460
SK-MEL-5 = system: SK-MEL-5
Hs-578T = system: Hs-578T
OVCAR-5 = system: OVCAR-5
SK-MEL-2 = system: SK-MEL-2
T47D = system: T47D
SNB-19 = system: SNB-19
RPMI-8226 = system: RPMI-8226
OVCAR-3 = system: OVCAR-3
BT-549 = system: BT-549
PC-3 = system: PC-3
UO-31 = system: UO-31
KM12 = system: KM12
SK-MEL-28 = system: SK-MEL-28
DU-145 = system: DU-145
SF-295 = system: SF-295
HCT-15 = system: HCT-15
SN12C = system: SN12C
OVCAR-4 = system: OVCAR-4
UACC-62 = system: UACC-62
CAKI-1 = system: CAKI-1
HCT-116 = system: HCT-116
MDA-MB-435 = system: MDA-MB-435
OVCAR-8 = system: OVCAR-8
M14 = system: M14
CCRF-CEM = system: CCRF-CEM
HT-29 = system: HT-29
U-251 = system: U-251
MOLT-4 = system: MOLT-4
NCI-H522 = system: NCI-H522
SNB-75 = system: SNB-75
HL-60 = system: HL-60
A549 = system: A549
786-0 = system: 786-0
SF-268 = system: SF-268
SF-539 = system: SF-539
TK-10 = system: TK-10
ACHN = system: ACHN
UACC-257 = system: UACC-257
EKVX = system: EKVX
HCC 2998 = system: HCC 2998

`CO/C(=N\N=C(/c1ccccc1)C(F)(F)F)c1ccncc1` was tested, and the GI50 (SK-OV-3) was 46.3 µM (inactive), the GI50 (IGROV-1) was 63.2 µM (inactive) and the GI50 (Malme-3M) was 72.8 µM (inactive). For the same molecule, the GI50 (HOP-92) was 53.2 µM (inactive), the GI50 (NCI-H226) was 17.2 µM (inactive) and the GI50 (A498) was 87.5 µM (inactive). The GI50 (SR) was 54.6 µM (inactive), the GI50 (RXF 393) was 16.3 µM (inactive) and the GI50 (K562) was 6.44 µM (inactive). For the same molecule, the GI50 (NCI-H23) was 36.2 µM (inactive), the GI50 (HOP-62) was 46.6 µM (inactive) and the GI50 (NCI/ADR-RES) was 20.3 µM (inactive). The GI50 (MCF7) was 38.6 µM (inactive), the GI50 (COLO 205) was 28.7 µM (inactive) and the GI50 (MDA-MB-231) was 39.3 µM (inactive). For the same molecule, the GI50 (NCI-H460) was 35.8 µM (inactive), the GI50 (SK-MEL-5) was 21.8 µM (inactive) and the GI50 (Hs-578T) was 49.2 µM (inactive). For the same molecule, the GI50 (OVCAR-5) was > 100 µM (inactive), the GI50 (SK-MEL-2) was 25 µM (inactive) and the GI50 (T47D) was 35.2 µM (inactive). For the same molecule, the GI50 (SNB-19) was > 100 µM (inactive), the GI50 (RPMI-8226) was 27.6 µM (inactive) and the GI50 (OVCAR-3) was 37.8 µM (inactive). For the same molecule, the GI50 (BT-549) was 31.8 µM (inactive), the GI50 (PC-3) was 26.1 µM (inactive) and the GI50 (UO-31) was 38.6 µM (inactive). The GI50 (KM12) was 43.7 µM (inactive), the GI50 (SK-MEL-28) was 57.7 µM (inactive) and the GI50 (DU-145) was 44.5 µM (inactive). For the same molecule, the GI50 (SF-295) was 48.6 µM (inactive), the GI50 (HCT-15) was 27.5 µM and the GI50 (SN12C) was 66.8 µM (inactive). The GI50 (OVCAR-4) was 80.7 µM (inactive), the GI50 (UACC-62) was 27.5 µM (inactive) and the GI50 (CAKI-1) was 45 µM (inactive). The GI50 (HCT-116) was 28.3 µM (inactive), the GI50 (MDA-MB-435) was 18.8 µM (inactive) and the GI50 (OVCAR-8) was 69.5 µM (inactive). The GI50 (M14) was 52.6 µM (inactive), the GI50 (CCRF-CEM) was 17.4 µM (inactive) and the GI50 (HT-29) was 42.8 µM (inactive). For the same molecule, the GI50 (U-251) was 48.4 µM (inactive), the GI50 (MOLT-4) was 19.1 µM (inactive) and the GI50 (NCI-H522) was 26.6 µM (inactive). For the same molecule, the GI50 (SNB-75) was 34.9 µM (inactive) and the GI50 (HL-60) was > 100 µM (inactive).

In the case of `O=C1Oc2ccccc2N/C1=C/C(=O)c1ccc([N+](=O)[O-])cc1`, the GI50 (SK-OV-3) is reported as > 100 µM (inactive), the GI50 (IGROV-1) is reported as > 100 µM (inactive) and the GI50 (Malme-3M) is reported as > 100 µM (inactive). For the same molecule, the GI50 (NCI-H226) was > 100 µM (inactive), the GI50 (A498) was > 100 µM (inactive) and the GI50 (SR) was > 100 µM (inactive). For the same molecule, the GI50 (A549) was > 100 µM (inactive), the GI50 (RXF 393) was > 100 µM (inactive) and the GI50 (K562) was > 100 µM (inactive). For the same molecule, the GI50 (NCI-H23) was > 100 µM (inactive), the GI50 (HOP-62) was > 100 µM (inactive) and the GI50 (NCI/ADR-RES) was > 100 µM (inactive). The GI50 (MCF7) was > 100 µM (inactive), the GI50 (COLO 205) was > 100 µM (inactive) and the GI50 (MDA-MB-231) was > 100 µM (inactive). For the same molecule, the GI50 (NCI-H460) was > 100 µM (inactive), the GI50 (SK-MEL-5) was > 100 µM (inactive) and the GI50 (Hs-578T) was 23.2 µM (inactive). For the same molecule, the GI50 (OVCAR-5) was > 100 µM (inactive), the GI50 (786-0) was > 100 µM (inactive) and the GI50 (SK-MEL-2) was > 100 µM (inactive). For the same molecule, the GI50 (T47D) was > 100 µM (inactive), the GI50 (SNB-19) was > 100 µM (inactive) and the GI50 (OVCAR-3) was > 100 µM (inactive). For the same molecule, the GI50 (BT-549) was 98.2 µM (inactive), the GI50 (PC-3) was 80.7 µM (inactive) and the GI50 (UO-31) was > 100 µM (inactive). The GI50 (KM12) was > 100 µM (inactive), the GI50 (SF-268) was > 100 µM (inactive) and the GI50 (DU-145) was > 100 µM (inactive). The GI50 (SF-295) was > 100 µM (inactive), the GI50 (HCT-15) was over 100 µM and the GI50 (SN12C) was > 100 µM (inactive). For the same molecule, the GI50 (OVCAR-4) was > 100 µM (inactive), the GI50 (UACC-62) was 45.8 µM (inactive) and the GI50 (CAKI-1) was > 100 µM (inactive). The GI50 (SF-539) was > 100 µM (inactive), the GI50 (HCT-116) was > 100 µM (inactive) and the GI50 (MDA-MB-435) was > 100 µM (inactive). For the same molecule, the GI50 (OVCAR-8) was > 100 µM (inactive), the GI50 (TK-10) was > 100 µM (inactive) and the GI50 (ACHN) was > 100 µM (inactive). The GI50 (M14) was > 100 µM (inactive), the GI50 (UACC-257) was > 100 µM (inactive) and the GI50 (CCRF-CEM) was 61 µM (inactive). For the same molecule, the GI50 (EKVX) was > 100 µM (inactive), the GI50 (HT-29) was > 100 µM (inactive) and the GI50 (U-251) was > 100 µM (inactive). The GI50 (MOLT-4) was > 100 µM (inactive), the GI50 (NCI-H522) was 23 µM (inactive) and the GI50 (HCC 2998) was > 100 µM (inactive). For the same molecule, the GI50 (SNB-75) was > 100 µM (inactive).

From ChEMBL document CHEMBL1201862, “PubChem BioAssay data set” (2004)
